Test results: patent publication US20130225830A1, “POLYMORPHS OF FEBUXOSTAT” (MAPI PHARMA LIMITED, priority 2010, published 2013)
Converted amounts (≈) assume the structure as drawn. Read-outs that look alike come from different tables or passages of the source.

Experiment: Aqueous solubility measurements
Format: physicochemical
Conditions: for pH: final pH of saturated solution; for solubility at 24 h: thermodynamic from solid, read-out: HPLC solubility
Protocol: Testing media: water, pH 1.2, 4.5, 6.8, 7.4 USP buffers, 0.01 N HCl, 0.1 N HCl, SGF, FaSSIF, FeSSIF.
The various testing media were prepared as follows:
pH 1.2 (USP): 50 mL of 0.2 M potassium chloride solution were placed in a 200 mL volumetric flask to which 85.0 mL of 0.2M hydrochloric acid solution were added followed by the addition of water to obtain the required volume.
pH 4.5 (USP): 50 mL of 0.2 M potassium biphthalate solution were placed in a 200 mL volumetric flask to which 8.8 mL of 0.2 M sodium hydroxide solution were added followed by the addition of water to obtain the required volume.
pH 6.8 (USP): 50 mL of 0.2 M monobasic potassium phosphate solution were placed in a 200 mL volumetric flask to which 22.4 mL of 0.2 M sodium hydroxide solution were added followed by the addition of water to obtain the required volume.
pH 7.4 (USP): 50 mL of 0.2 M monobasic potassium phosphate solution were placed in a 200 mL volumetric flask to which 39.1 mL of 0.2 M sodium hydroxide solution were added followed by the addition of water to obtain the required volume.
Simulated gastric fluid (SGF): 0.01 N HCl, 0.05% sodium lauryl sulfate, and 0.2% NaCl.
Fasted state simulated intestinal fluid (FaSSIF): 29 mM NaH2PO4, 3 mM Na taurocholate, 0.75 mM lecithin, 103 mM NaCl, and NaOH to obtain pH 6.5.
Fed state simulated intestinal fluid (FeSSIF): 144 mM acetic acid, 15 mM Na taurocholate, 3.75 mM lecithin, 204 mM NaCl, and NaOH to obtain pH 5.0.
Testing procedure: The tested febuxostat form was placed in each of the different media and was kept shaken for 24 hours at 25° C. Then, the saturated solution was filtered. The concentration of the febuxostat form in filtrate was determined by HPLC. The final pH was then tested. The test was conducted in duplication.

[1] = media 0.01N HCl, 24 hours at 25° C.
[2] = media 0.1N HCl, 24 hours at 25° C.
[3] = media FaSSIF, 24 hours at 25° C.
[4] = media FeSSIF, 24 hours at 25° C.
[5] = media pH 1.2 (USP), 24 hours at 25° C.
[6] = media pH 4.5 (USP), 24 hours at 25° C.
[7] = media pH 6.8 (USP), 24 hours at 25° C.
[8] = media pH 7.4 (USP), 24 hours at 25° C.
[9] = media water, shaken 24 hours at 25° C.
[10] = media water, 24 hours at 25° C.
[11] = pH1.2 USP buffer, 0.01N HCl, 0.1N HCl and SGF
[12] = pH6.8 USP buffer, pH7.4 USP buffer, FaSSIF, FeSSIF

## Cc1nc(-c2ccc(OCC(C)C)c(C#N)c2)sc1C(=O)O [Form IX, 2-(3-cyano-4-isobutoxyphenyl)-4-methyl-5-thiazolecarboxylic acid]
colon-simulated media (pHs=6.8-7.4) and intestinal fluids
  solubility at colon-simulated media and intestinal fluids (in words): improved solubility
[1]
  pH: 2.078
  Visual solubility: Turbid + few particles
[2]
  pH: 1.060
  Visual solubility: Turbid + few particles
[3]
  pH: 6.246
  HPLC solubility: 606.65 µg/mL
  Visual solubility: Turbid
[4]
  pH: 4.983
  HPLC solubility: 192.53 µg/mL
  Visual solubility: Turbid
Media SGF, 24 hours at 25° C.
  pH: 2.097
  Visual solubility: Turbid
[5]
  pH: 1.242
  Visual solubility: Turbid + few particles
[6]
  pH: 4.524
  HPLC solubility: 0.78 µg/mL
  Visual solubility: Turbid + few particles
[7]
  pH: 6.477
  HPLC solubility: 1409.99 µg/mL
  Visual solubility: Turbid + few particles
[8]
  pH: 6.690
  HPLC solubility: 4836.10 µg/mL
  Visual solubility: Slightly turbid
[9]
  pH: 5.403
[10]
  HPLC solubility: 32.99 µg/mL
  Visual solubility: Turbid + few particles
[11]
  aqueous solubility (in words): poor solubility
[12]
  aqueous solubility (in words): good solubility

## Cc1nc(-c2ccc(OCC(C)C)c(C#N)c2)sc1C(=O)O [Form V, 2-(3-cyano-4-isobutoxyphenyl)-4-methyl-5-thiazolecarboxylic acid]
USP buffer pH 6.8, 25 °C, pH 6.8, aqueous buffer, media pH 6.8 (USP), 24 hours at 25° C.
  solubility at 24 h: 1120 µg/mL (≈ 3550 µM)
[1]
  pH: 2.003
  Visual solubility: few particles
[2]
  pH: 0.951
  Visual solubility: few particles
[3]
  pH: 6.384
  HPLC solubility: 513.37 µg/mL
  Visual solubility: Turbid + few particles
[4]
  pH: 4.995
  HPLC solubility: 180.61 µg/mL
  Visual solubility: Turbid + few particles
Media SGF, 24 hours at 25° C.
  pH: 2.108
  Visual solubility: few particles
[5]
  pH: 1.157
  Visual solubility: few particles
[6]
  pH: 4.452
  HPLC solubility: 0.38 µg/mL
  Visual solubility: Turbid + few particles
[7]
  pH: 6.641
  Visual solubility: Turbid + few particles
[8]
  pH: 6.960
  HPLC solubility: 4317.12 µg/mL
  Visual solubility: Slightly turbid
[9]
  pH: 7.520
[10]
  Visual solubility: Turbid + few particles
[11]
  aqueous solubility (in words): poor solubility
[12]
  aqueous solubility (in words): good solubility
water, 25 °C, water, media water, 24 hours at 25° C.
  solubility at 24 h: 54.9 µg/mL (≈ 173 µM)

## Cc1nc(-c2ccc(OCC(C)C)c(C#N)c2)sc1C(=O)O [Form XI, 2-(3-cyano-4-isobutoxyphenyl)-4-methyl-5-thiazolecarboxylic acid]
[1]
  pH: 1.981
  Visual solubility: few particles
[2]
  pH: 0.967
  Visual solubility: few particles
[3]
  pH: 6.336
  HPLC solubility: 521.19 µg/mL
  Visual solubility: Turbid + few particles
[4]
  pH: 4.998
  HPLC solubility: 149.95 µg/mL
  Visual solubility: Turbid + few particles
Media SGF, 24 hours at 25° C.
  pH: 2.114
  Visual solubility: few particles
[5]
  pH: 1.132
  Visual solubility: few particles
[6]
  pH: 4.479
  HPLC solubility: 0.49 µg/mL
  Visual solubility: few particles
[7]
  pH: 6.684
  HPLC solubility: 931.90 µg/mL
  Visual solubility: Turbid + few particles
[8]
  pH: 6.905
  HPLC solubility: 4464.94 µg/mL
  Visual solubility: Slightly turbid + few
[9]
  pH: 8.106
[10]
  HPLC solubility: 33.82 µg/mL
  Visual solubility: Turbid + few particles
[11]
  aqueous solubility (in words): poor solubility
[12]
  aqueous solubility (in words): good solubility
